Calls of active or inactive are those of the source. The calls are words filed in the database; no cut-off is given here.
Assays:
N9 [1] = assay: Inhibition of LPS-induced of NLRP3 expression in mouse N9 cells at 0.7 to 2.8 uM incubated for 24 hrs dosed 24 hrs after LPS stimulation by Quantitative PCR assay; type: functional; details: dose 0.7-2.8 µM, DDE = dose-dependent effect
[2] = Inhibition of LPS-induced of NLRP3 expression in mouse N9 cells assessed as NLRP3 expression level at 0.7 uM incubated for 24 hrs dosed 24 hrs after LPS stimulation by Quantitative PCR assay; type: functional; set-up: scale not given: the % may be the effect or the level left
[3] = Inhibition of LPS-induced of NLRP3 expression in mouse N9 cells assessed as NLRP3 expression level at 1.4 uM incubated for 24 hrs dosed 24 hrs after LPS stimulation by Quantitative PCR assay; type: functional; set-up: scale not given: the % may be the effect or the level left
[4] = Inhibition of LPS-induced of NLRP3 expression in mouse N9 cells assessed as NLRP3 expression level at 2.8 uM incubated for 24 hrs dosed 24 hrs after LPS stimulation by Quantitative PCR assay; type: functional; set-up: scale not given: the % may be the effect or the level left
N9 [5] = assay: Inhibition of LPS-induced of NLRP3 expression in mouse N9 cells at 2.8 uM incubated for 24 hrs dosed 24 hrs after LPS stimulation by Western blot; type: functional
N9 [6] = assay: Inhibition of LPS-induced of iNOS expression in mouse N9 cells at 2.8 uM incubated for 24 hrs dosed 24 hrs after LPS stimulation by Western blot; type: functional
N9 [7] = assay: Inhibition of LPS-induced of nitric oxide production in mouse N9 cells at 2.8 uM incubated for 24 hrs dosed 24 hrs after LPS stimulation by DAF-FM dye based fluorescence assay; type: functional
[8] = Toxicity in mouse N9 cells assessed as effect on cell viability at 0.35 to 5.6 uM incubated for 24 hrs by MTT assay; type: cell-based; details: n9, 24 h, dose 0.35-5.6 µM
N9 [9] = assay: Inhibition of LPS-induced Caspase-1 expression in mouse N9 cells at 2.8 uM incubated for 24 hrs dosed 24 hrs after LPS stimulation by FLICA 660 Caspase-1 assay; type: functional
[10] = Inhibition of LPS-induced of IL-1beta expression in mouse N9 cells assessed as relative IL-1beta expression at 2.8 uM incubated for 24 hrs dosed 24 hrs after LPS stimulation by Quantitative PCR assay (reference value: 7 fold); type: functional
[11] = Inhibition of LPS-induced of IL-1beta expression in mouse N9 cells assessed as IL-1beta level at 2.8 uM incubated for 24 hrs dosed 24 hrs after LPS stimulation by ELISA (reference value: 100 pg/ml); type: functional
N9 [12] = assay: Inhibition of LPS-induced of TNF-alpha expression in mouse N9 cells at 2.8 uM incubated for 24 hrs dosed 24 hrs after LPS stimulation by ELISA; type: functional
N9 [13] = assay: Inhibition of LPS-induced of phagocytosis in mouse N9 cells assessed as decrease in intracellular FAM-Abeta42 fluorescent intensity at 2.8 uM incubated for 24 hrs dosed 24 hrs after LPS stimulation by FAM-labeled fluorescent Abeta-42 peptide based fluorescence assay; type: functional
N9 [14] = assay: Inhibition of LPS-induced of phagocytosis in mouse N9 cells assessed as decrease in FAM positive cell number at 2.8 uM incubated for 24 hrs dosed 24 hrs after LPS stimulation by FAM-labeled fluorescent Abeta-42 peptide based fluorescence assay; type: functional
[15] = Stabilization of microglia morphology in mouse N9 cells assessed as resting morphology level at 2.8 uM incubated for 24 hrs dosed 24 hrs after LPS stimulation by (reference value: 18%); type: functional
Brain [16] = assay: Suppression of microglia activation in C57BL/6 mouse brain assessed as maintenance of microglia morphology by measuring Iba1 positive cells in cerebral cortex area at 55 mg/kg, ip by immunofluorescence staining; type: functional, organism-based
Brain [17] = assay: Suppression of microglia activation in C57BL/6 mouse brain assessed as maintenance of microglia morphology by measuring Iba1 positive cell number in cerebral cortex positive cells in cerebral cortex area at 55 mg/kg, ip by immunofluorescence staining; type: functional, organism-based

Compound: O=C1N(c2cncnc2)CCCN1S(=O)(=O)c1ccc(C(F)(F)F)cc1
- inhibition (N9 [1]): Dde
- Activity [2]: 370%
- Activity [3]: 220%
- Activity [4]: 100%
- inhibition (N9 [5]): Active
- inhibition (N9 [6]): Active
- inhibition (N9 [7]): Active
- Activity [8]: Non-Toxic
- inhibition (N9 [9]): Active
- fold change (FC) [10]: 2
- Activity [11]: 70 pg/mL
- inhibition (N9 [12]): Active
- inhibition (N9 [13]): Active
- inhibition (N9 [14]): Active
- Activity [15]: 65%
- Activity (Brain [16]): Active
- Activity (Brain [17]): Active

Source: ChEMBL document CHEMBL5154733, “Targeting NLRP3 signaling by a novel-designed sulfonylurea compound for inhibition of microglial inflammation” (Bioorg Med Chem, 2022)
